This is an account of results in patent US6872751B2, “Composition and method for augmenting or restoring the production of fetal protein in patient in need thereof” (Centre National de la Recherche Scientifique - CNRS, priority 1999, dated 2005).

Entries after “also recorded” stand apart in the source; their conditions may differ.

Experiment [1] concerns utrophin. Description: Utrophin immunofluorescence in NXLT (normal) myotubes. To be noted: 48 hours. The experiment is classed as cell-based, mouse. Here is the method: (§1) A, a-h: normal cell line (NXTL). B, a′-h′: mdx cell line (XLT). The cell cultures were treated by exposure of the differentiated myotubes to drugs for 48 hours. A, a′: control cultures. B, b′: L-arginine(2.10^−3M). c, c′: SIN-1 (10^−3 M). d, d′: SIN-I (10^−3 M) +L-arginine (10^−3 M). e, e′: D-arginine (10^−3 M). f, f′: L-arginine (10^−3 M)+OQD (10^−5 M). g, g′: L-NMMA (10^−3 M). h, h′: hydroxyurea (10^−4 M).
(§2) Myotubes were obtained from normal cell line (NXLT) and mdx cell line as described by Liberona et al (1998, Muscle & Nerve, 21:902-909), and C2 myotubes as described by Inestrosa et al. (1983, Exp. Cell Res., 147:393-405).
(§3) In vitro. The cultures were treated as described previously with the exception of the second antibody labelled with fluoroscein which was diluted to 1/100 vol/vol. The incubation time was 2 hours for the first and second antibody.

Experiment [2] relates to utrophin. Description: Utrophin immunofluorescence in XLT (mdx) myotubes. The format is cell-based, mouse. To be noted: 48 hours. Here is the method: as §1, §2, §3
Experiment [3] has as its system utrophin. The experiment in a line: Utrophin immunofluorescence in C2 myotubes. The format is cell-based, mouse. The note with it: C2 mice myotubes. How it is done: Myotubes were obtained from normal cell line (NXLT) and mdx cell line as described by Liberona et al (1998, Muscle & Nerve, 21:902-909), and C2 myotubes as described by Inestrosa et al. (1983, Exp. Cell Res., 147:393-405). In vitro. The cultures were treated as described previously with the exception of the second antibody labelled with fluoroscein which was diluted to 1/100 vol/vol. The incubation time was 2 hours for the first and second antibody.

Experiment [4] deals with utrophin. The experiment in a line: Utrophin immunofluorescence in primary rat myotubes. The format is cell-based. How it is done: as §3
Experiment [5] relates to utrophin. The experiment in a line: Utrophin immunolocalisation in muscle of normal adult mice treated chronically with L-arginine. The format is in vivo, mouse. To be noted: normal adult C57 BL/6 mice, 200 mg/kg daily intra-peritoneal for three weeks, thigh muscles. How it is done: (§4) Three normal, adult mice aged 18 months (C57 BL/6 line) and three mdx mice were given a daily intra-peritoneal injection of 200 mg/kg L-arginine for three weeks. Two other groups of three adult mice were used as controls and were given a daily injection of physiological serum.
(§5) The mice were sacrificed by ether anaesthesia, the biceps femoris and the semi-tendinous muscles were quickly dissected from the hind limbs of each animal and frozen in liquid nitrogen.
(§6) In vivo. After cold fixing in methanol (−20° C. for 10 minutes) sections of […] were incubated for two hours with utrophin specific monoclonal antibody (NCL-DRP 2, Novacastra) (1/10 vol/vol) in PBS containing 0.1% saponin and 0.2% bovine albumin. The second antibody labelled with fluoroscein (N 1031, Amersham) was diluted (1/4000 vol/vol) in PBS containing 0.1% saponin and incubated for one hour.

For experiment [6], the system named is utrophin. Description: Utrophin immunolocalisation in muscle of mdx mice treated chronically with L-arginine. The format is in vivo, mouse. To be noted: 200 mg/kg daily intra-peritoneal for three weeks, thigh muscles. How it is done:
as §4, §5, §6

The test system of experiment [7] is utrophin. Description: Utrophin immunoblot of NXLT myotubes. The experiment is classed as cell-based, mouse. To be noted: 48 hours, 2.10^-3 M. How it is done: (§7) Imunoblot analysis of utrophin was conducted under control conditions (CTRL) and after 48 hours treatment with 2.10^−3 M L-arginine (L-arg).
as §2
(§8) The myotubes obtained from the NXLT, XLT and C2 lines were homogenized using a Polytron (Kinematica) in 10 mM Tris-HCl pH 6.8, 1% Triton X-100, 1% SOS, 0.5% sodium deoxycholate on ice. The quantity of total proteins was determined following the protocol for the bicinchoninic acid protein test (BCA, Pierce). Equivalent quantities of protein were separated by SOS-Page on 5% gel, then electrotransferred onto a nitrocellulose membrane (Schleicher & Schuell). The membranes were then incubated with the same monoclonal antibody directed against utrophin used for the immunofluorescence techniques (1/250 vol/vol). The fixed antibodies were detected with a Sanofi anti-mouse goat secondary antibody (1/5000 vol/vol) bound to horseradish peroxydase and developed by chemioluminescence reaction (ECL, Amersham Pharmacy Biotech).
(In general: Immunoblotting shows a protein as a band on a membrane.)

Experiment [8] concerns utrophin. The experiment in a line: Utrophin immunoblot of XLT (mdx) myotubes. The format is cell-based, mouse. To be noted: 48 hours, 2.10^-3 M. How it is done: as §7, §2, §8
In experiment [9] the test system is utrophin. Description: Utrophin immunoblot of C2 myotubes. The format is cell-based, mouse. The note with it: 48 hours, 2.10^-3 M. Here is the method: as §7, §2, §8
The mark [10] stands for this setting: ODQ 10^-5 M with L-arginine 10^-3 M.

With `N=c1c[n+](N2CCOCC2)[n-]o1` [SIN-1, 3-morpholino-sydnonimine], the utrophin labelling entry in the experiment with utrophin [1] (10^-3 M) is given as “utrophin labelling increased”; in the experiment with utrophin [2] (10^-3 M), “utrophin labelling increased”; in the experiment on utrophin [3], “increased labelling of utrophin was also observed to a lesser extent”; in the experiment with utrophin [4], “increased labelling of utrophin was also observed to a lesser extent”.
`N=C(N)NCCC[C@@H](N)C(=O)O` [D-arginine]: the utrophin labelling entry with utrophin [1] (10^-3 M) and in the experiment on utrophin [2] (10^-3 M) was “absence of any effect” throughout.
For `O=c1onc2cnc3ccccc3n12` [ODQ], the “utrophin synthesis induced by NO (labelling)” value in the experiment with utrophin [1] (setting [10]) and in the experiment with utrophin [2] (setting [10]) was “inhibited” throughout.
Regarding `CNC(=N)NCCC[C@H](N)C(=O)O` [L-NMMA, N^G-methyl-L-arginine], the utrophin labelling entry in the experiment on utrophin [1] (10^-3 M) and with utrophin [2] (10^-3 M) was “basal level of utrophin” in each case.
Turning to `NC(=O)NO` [hydroxyurea], the utrophin labelling entry in the experiment with utrophin [1] (10^-4 M) and in the experiment with utrophin [2] (10^-4 M) was “increases utrophin labelling in remarkable manner” throughout.
In the case of `N=C(N)NCCCC(N)C(=O)O` [L-arginine, 2-amino-5-guanidinovaleric acid], the figures for the “utrophin at the sarcolemma (immunolocalisation)” value in the experiment on utrophin [5] and in the experiment with utrophin [6] were “utrophin is seen under the sarcolemma; also recorded: utrophin was detected underneath the sarcolemma” and “increase in utrophin levels under the sarcolenima; also recorded: increased the utrophin level already present in the sarcolemma”, respectively. Further, the utrophin labelling entry is listed as “utrophin labelling increased” with utrophin [1] (2.10^-3 M), “utrophin labelling increased” in the experiment on utrophin [2] (2.10^-3 M), “increased labelling of utrophin was also observed to a lesser extent” in the experiment with utrophin [3] and “increased labelling of utrophin was also observed to a lesser extent” in the experiment on utrophin [4]. Also, the “utrophin level (Western blot)” value is “evident increase of utrophin” in the experiment on utrophin [7], “evident increase of utrophin” in the experiment with utrophin [8] and “increase in utrophin after treatment with L-arginine was confirmed” in the experiment with utrophin [9].
